Assay results: ChEMBL document CHEMBL1130489, “Synthesis and anti-HIV activity of some new aminoadamantane heterocycles” (Bioorg Med Chem Lett, 1997)

Columns and labels:
Settings in all cases: Homo sapiens
MT4 [1] = assay: Concentration required to protect MT-4 cells against the cytopathogenicity of HIV-2 (ROD); assay type: functional, cell-based
MT4 [2] = assay: Concentration required to protect MT-4 cells against the cytopathogenicity of HIV-1 (IIIB/LAI); assay type: functional, cell-based
MT4 [3] = assay: Cytotoxic concentration required to reduce the viability of MT-4 cells by 50%; assay type: functional

Row | SMILES | EC50 (MT4 [1]) [µM] | EC50 (MT4 [2]) [µM] | CC50 (MT4 [3]) [µM]
1 | C1CCC(C23CC4CC(CC(C4)C2)C3)NC1 (configuration not stated) | > 403 | > 403 | 403
2 | O=C(Nc1ccc(Cl)cc1)N1CCCCC1C12CC3CC(CC(C3)C1)C2 (configuration not stated) | > 13 | > 13 | 12.6
3 | C1CCN(CC2CC2)C(C23CC4CC(CC(C4)C2)C3)C1 (configuration not stated) | > 265 | 75.2 | 263
4 | CN1CCCCC1C12CC3CC(CC(C3)C1)C2 (configuration not stated) | > 415 | > 415 | 413
5 | CN(C)CCN1CCCCC1C12CC3CC(CC(C3)C1)C2 (configuration not stated) | > 276 | 40.8 | 274
6 | S=C(Nc1ccc(Cl)cc1Cl)N1CCCCC1C12CC3CC(CC(C3)C1)C2 (configuration not stated) | > 19 | > 19 | 17.7
7 | c1ccc(CN2CCCCC2C23CC4CC(CC(C4)C2)C3)cc1 (configuration not stated) | > 64 | > 64 | 62.7
8 | CCN1CCCCC1C12CC3CC(CC(C3)C1)C2 (configuration not stated) | > 419 | > 419 | 417
9 | C1CCN(CCN2CCCCC2C23CC4CC(CC(C4)C2)C3)CC1 (configuration not stated) | > 54 | 3.6 | 52.6
